Measurements: patent publication US20050175695A1 (priority 2003, published 2005)
Where a name gives a salt, the structure may show the parent alone.

Tests used:
[1] = both R and S isomer forms; cited from earlier work
[2] = pH-solubility behaviour of carvedilol free base; format: physicochemical; conditions: pH values encountered in the distal small intestine and colon
[3] = Aqueous solubility at 25° C. of carvedilol free base and three salts (Table 13); format: physicochemical
Description: Aliquots were taken out at various time-point, filtered through 0.45 μm Acrodisc GHP filter.

Row | solubility [2] | SMILES | alpha elimination phase [1] | aqueous solubility compared with free base [3]
1 | ≤ 0.1 mg per ml | COc1ccccc1OCCNCC(O)COc1cccc2[nH]c3ccccc3c12 (stereo not drawn) [Carvedilol Free Base] | about 1.5 hours | 
2 |  | COc1ccccc1OCCNCC(O)COc1cccc2[nH]c3ccccc3c12 (stereo not drawn) [HBr salt, Carvedilol HBr] |  | much better aqueous solubility than the free base
